Data reported in article PMC12801355, “Peptide Amphiphiles Hitchhike on Endogenous Biomolecules for Enhanced Cancer Imaging and Therapy” (Advanced Materials (Deerfield Beach, Fla.), 2025).
Where a SMILES comes first, the peptide text is derived from it. Where no end group is shown, it is not given here. [ ]: non-standard residue; d: D form. The star is where a group is joined. Dolaproine = CO[C@@H]([C@@H]1CCCN1)[C@@H](C)C(=O)O; Dil = CC[C@H](C)[C@H](NC)[C@@H](CC(=O)O)OC; Palmitoyl = CCCCCCCCCCCCCCCC(=O)*; X1 = C[C@@H](N*)[C@@H](O)c1ccccc1; NMeV = CN[C@H](C(=O)O)C(C)C

Legend:
[1] = TEM imaging of PA nanostructures; type: physicochemical; settings: ICG conjugated PA, 200 µM in ultrapure water, negative stain
Protocol: For TEM imaging, PAs conjugated with ICG, Cy5 or MMAE were dissolved in ultrapure water at a concentration of 200 µM. Carbonfilm 200 copper mesh TEM grids were glow‐discharged first. Then, PA solutions (15 µL) were placed on the grids, incubated for 10 min before blotting, and air‐dried. 15 µL of ultrapure water was applied to wash the grid for 3 min. After incubation, the water was removed by blotting from the edge of the grid. For negative staining of the samples, a 0.4% uranyl acetate solution was prepared in ultrapure water and filtered using a 0.1 µm syringe filter. 15 µL of filtered uranyl acetate solution was applied to the grid and incubated for 5 min. Finally, TEM grids were blotted to remove excess stain and dried at room temperature. TEM imaging was performed using a Tecnai or Talos microscope (FEI).

[2] = Fluorescence polarization of PA nanostructures; type: physicochemical; settings: 10 mol% ICG conjugated PA (20 µM) with unconjugated PA, 200 µM total, PBS; mean ± SEM, 3 wells
Protocol: ICG (10 mol%) containing PA micelles were prepared by mixing ICG‐conjugated PAs with unconjugated or MMAE‐conjugated PAs to achieve a final concentration of 20 µM ICG‐conjugated PAs and 200 µM of total PAs. Aliquots of 100 µL were added to a 96‐well plate (3 wells for each PA). Fluorescence polarization measurements were performed using a microplate reader (TECAN Spark 20 M). The corrected parallel intensity (I par) and perpendicular intensity (Iper) were used to calculate the fluorescence anisotropy (r) using the following equation: r = […].

[3] = tested on: 4T1 mouse breast cancer cells; test: Cellular uptake of Cy5 labeled PAs; type: cell-based
Protocol: To compare the uptake of SA‐E and SA‐K, 1 × 10^5 4T1 cells were grown to near confluency (1–2 days) in 96 well plates with black walls and flat glass bottom. 100% Cy5 conjugated PAs (20 or 10 µM) or 10% Cy5 conjugated PA micelles (10 µM Cy5‐PAs mixed with 90 µM maleimide blocked labeled PAs) were preincubated in 10% FBS containing RPMI for 30 min at 37 °C, wells were aspirated, and 100 µL of media containing PAs were added. The plate was incubated for 30 min for the experiments with 100% Cy5 conjugated PAs. Media were aspirated, wells were washed 3x with 150 µL sterile PBS, and then 100 µL RPMI containing 10% FBS was added to each well. The plate was incubated for 1 h at 37 °C. For 10% and 100% Cy5 micelle uptake comparison, plate was incubated for 2 h at 37 °C with PAs. Then, media containing PAs were aspirated and washed with PBS, as above. Cell nuclei were stained with Hoechst (1:5000 dilution in PBS) for 5 min and then removed. 100 µL of phenol red free RPMI containing 10% FBS was added to each well. […] The microscope incubator was preheated for 30 min to reach 35 °C prior to imaging.
To study the uptake of SA‐E or SA‐K micelles (10% or 100% Cy5 micelles) or No‐SA over time, 4T1 cells were grown to near confluency in a 96 well plate as described above. Cy5 conjugated 100% Cy5 conjugated PAs (20 µM), 10% Cy5 conjugated PAs (10 µM Cy5), or No‐SA (20 µM) or were preincubated in 10% FBS containing RPMI for 30 min at 37 °C. Cell nuclei were stained with Hoechst stain as above. Cell membranes were stained (CellBrite 488, 1:1000 in 10% FBS containing RPMI) for 30 min at 37 °C. Wells were aspirated, and 100 µL of PAs were added to the wells for ≈1 min. Wells were washed with sterile PBS (3x, 150 µL), and Confocal images were taken at different time points (up to 2 h) after PA or No‐SA addition as described above using a 60x objective.

[4] = PA fluorescence in liver homogenates; type: in vitro ADME; settings: ICG conjugated, 0.1 to 10 µM spiked into mouse liver homogenate, IVIS
Protocol: Liver samples (6.2 g total weight) collected from healthy BALB/cJ mice were placed in a gentleMACS M Tube containing 2 mL of PBS. The M Tube was fitted with a 600 µm mesh strainer, and homogenization was performed using a gentleMACS Dissociator by running a one‐minute program at 1260 rotations per round (rpr) for five cycles. ICG conjugated SA‐E and SA‐K were then spiked into the liver homogenates in a 96‐well plate at final concentrations of 0, 0.1, 0.5, 2.0, 5.0, and 10 µM. Fluorescence signals from the homogenates were measured using an IVIS (PerkinElmer).

4T1 tumor [5] = test: Tumor accumulation, live IVIS imaging; type: in vivo, mouse; settings: 50 nmol IV
Protocol: For tumor accumulation studies in subcutaneous (HCT‐116, A375, TRAMP‐C2, MC38, LLC1, RG2, PDX cell lines, wild type or SR‐B1 ‐/‐ TRAMP‐C2, and wild type or LDL‐R ‐/‐ HeLa), intradermal (A375), or fat pad (4T1 and MCF‐7) tumors, cells were implanted as described above. When the tumors reached a size around ≈0.3–1 cm, mice were injected intravenously with 100 µL of ICG conjugated PAs (in PBS, 0.5 mM) or free ICG (in PBS, 0.5 mM). After probe injections, mice were imaged using the IVIS Spectrum (PerkinElmer) with excitation and emission wavelengths of 745 and 820 nm, respectively, at the specified time points. Living Image (PerkinElmer) software was used for all analyses. For MMTV mice experiments, mice were injected intravenously weekly with SA‐E (100 µL PBS, 0.5 mM) between 71 and 85 days of age and imaged 2 days later in the IVIS. […] SA‐E was injected intravenously (100 µL PBS, 0.5 mM), 2 days later the intestinal tissue was harvested, washed, and analyzed in the IVIS for ICG.

[6] = tested on: LPs (HDL, LDL, VLDL) and albumin in pooled human plasma; design: AUC of all FPLC peaks, lower than SA‐E: unit not given beside the values
[7] = Blood circulation in mice; type: in vivo, mouse
Protocol: For blood circulation experiments, Balb/c mice were injected with 100 µL of ICG conjugated PAs or No‐SA, or free ICG (0.5 mM). Then, blood was drawn via the saphenous vein or retro‐orbitally at different time points (immediately after injection to 1 day). […] Blood from wild type mice was collected to prepare calibration curves for each probe. To each 18 µL aliquot of blood, 2 µL of probe stock solution (0.5 mM) was added and incubated at 37 °C for 1 h. The spiked samples were then serially diluted in blood between 50 and 0.1 µM. For fluorescence measurement, 2 µL of each diluted sample was further diluted into 98 µL of PBS, and ICG fluorescence was measured using a TECAN plate reader.

4T1 tumor [8] = test: Antitumor effect, 4T1 orthotopic mouse model
Protocol: All experiments were approved by the Oregon Health and Science University (OHSU) Institutional Animal Care and Use Committee (IACUC) (TR01_IP00000674) and conformed to the guidelines set by the United States Animal Welfare Act and the National Institutes of Health. Mice were aged between 3 and 8 months and 20–30 g in weight and were housed in specific pathogen free cages. Human, mouse, or rat cells were injected into nude (The Jackson Laboratory, 002019), NSG mice (The Jackson Laboratory, 005557), Balb/c mice (The Jackson Laboratory, 000651), or C57Bl/6J mice (The Jackson Laboratory, 000664), as specified below. Cells were injected in 100 µL sterile DMEM at a concentration of 0.5–1×10^7 cells mL^−1, unless otherwise specified. For tumor accumulation and biodistribution studies, A375 cells were injected intradermally into the left ears of NSG mice (The Jackson Laboratory, 005557). MCF7 cells were injected into the mammary fat pad of NSG mice. HCT‐116, RG2, and HeLa (wild type or LDL‐R knockout) cells were subcutaneously injected into the left or both flanks of NSG mice. 4T1 cells were injected into the mammary fat pad of Balb/c mice. LLC1, MC38, and TRAMP‐C2 (wild type or SR‐B1 knockout) were injected into C57Bl/6J mice. Patient‐derived xenografts were generated by injecting the patient‐derived cancer cells subcutaneously into the left flank of NSG mice. ApoA1 and LDL‐R knockout mice were purchased from the Jackson Laboratory (002055 and 002207, respectively). MC38 cells were subcutaneously injected into both flanks of these mice. Apc^min and MMTV‐PyMT mice were purchased from the Jackson Laboratory (002020 and 002374). For antitumor activity studies, 4T1 cells were injected into the mammary fat pad of Balb/c mice. HCT‐116 and RG2 cells were subcutaneously injected into the left flanks of nude mice. For antitumor activity studies, HCT‐116 cells were injected in a 1:1 mixture of DMEM and Matrigel (Life Science 354263).
Mice were injected with 4T1, RG2, or HCT‐116 cells as described above. Mice were then treated intravenously with the free MMAE (0.1 or 0.3 mg kg^−1), SA‐E‐MMAE (0.3, 0.6, 0.8, or 1 mg kg^−1) or PBS (10 mM, pH 7.4). 5 doses were given every 2–3 days over 11 days. […] Tumor size and mouse weight were monitored 2–3 times per week until a humane endpoint (tumor size ≈2 cm or >20% body weight loss) or the study endpoint (18, 25, or 120 days for 4T1, RG2, and HCT‐116 studies, respectively). Tumor size was measured in two directions with a caliper rounded to the nearest tenth of a mm. Volume was calculated as a basic sphere of 4/3πr^3.

Molecule: CCCCCCCCCCCCCCCC(=O)NCC(=O)NCC(=O)NCC(=O)N[C@@H](Cc1c[nH]cn1)C(=O)N[C@@H](C)C(=O)N[C@@H](C)C(=O)N[C@@H](CC(N)=O)C(=O)NCC(=O)N[C@@H](CCCCN)C(=O)N[C@@H](CCCCN)C(=O)N[C@@H](CS)C(=O)N[C@@H](CCCCN)C(=O)O [SA‐K] (Palmitoyl-GGGHAANGKKCK-OH)
- diameter of rod‐shaped micelles (TEM) [1]: ≈ 10 nm
- length of rod‐shaped micelles (TEM) [1]: several hundred
- fluorescence anisotropy of ICG in micelles [2]: 0.299 ± 0.008
- uptake relative to SA‐E ([3]; Cy5 conjugated PAs, 10% FBS RPMI, 30 min incubation then 1 h, confocal): approximately three‐fold
- fluorescence in liver homogenates, SA‐E versus SA‐K (disassembly) [4]: almost identical fluorescence intensity
- maximum TBR, lower than that of SA‐E (4T1 tumor [5]; 4T1 tumor‐bearing mice): approximately two‐fold
- maximum tumor signal, lower than maximum of SA‐E (4T1 tumor [5]; 4T1 tumor‐bearing mice): ≈ 6 fold
- total tumor accumulation (AUC of tumor signal), lower than SA‐E (4T1 tumor [5]; 4T1 tumor‐bearing mice): ≈ 2.7 fold
- time of maximum tumor fluorescence (4T1 tumor [5]; 4T1 tumor‐bearing mice, ICG conjugated): 4 days
- AUC of all FPLC peaks, lower than SA‐E [6]: ≈ 4.5

Molecule: CC1(C)C(/C=C/C=C/C=C/C=C2\N(CCCCS(=O)(=O)O)c3ccc4ccccc4c3C2(C)C)=[N+](CCCCS(=O)(=O)[O-])c2ccc3ccccc3c21 [free ICG, indocyanine green]
- injected dose still in circulation ([7]; wild type (Balb/c) mice, ICG conjugated or free ICG 50 nmol IV, 6 h post injection, blood fluorescence with calibration curve): not detectable
- blood concentration, share of injected dose ([7]; wild type mice, 50 nmol IV, in 30 min): below 1%
- TBR (4T1 tumor [5]; all time points): around 1

Molecule: CC[C@H](C)[C@@H]([C@@H](CC(=O)N1CCC[C@H]1[C@H](OC)[C@@H](C)C(=O)N[C@H](C)[C@@H](O)c1ccccc1)OC)N(C)C(=O)[C@@H](NC(=O)[C@@H](NC)C(C)C)C(C)C [free MMAE, Monomethyl auristatin E] (H-[NMeV]V[Dil][Dolaproine]-X1)
- tolerability (4T1 tumor [8]; 0.1 mg kg^−1 IV, 5 doses, n = 3): tolerated
- tolerability (4T1 tumor [8]; 0.3 mg kg^−1 IV, stopped after the third injection, n = 5): high toxicity with rapid weight loss
- effect on tumor growth (4T1 tumor [8]; 0.1 or 0.3 mg kg^−1 IV): slight reduction in tumor growth

Molecule: GGGHAANGEECE [No‐SA]
- membrane binding and internalization ([3]; Cy5‐conjugated, 20 µM, ≈1 min exposure, imaging up to 2 h): no significant membrane binding or internalization
- TBR compared to SA‐E (4T1 tumor [5]; 4T1 tumor‐bearing mice): significantly lower TBR
- clearance from the tumor (4T1 tumor [5]; ICG conjugated, 4T1): mostly cleared in 2 days
